# In publication PMC8576438, “Identification and Functional Analysis of G Protein-Coupled Receptors in 20-Hydroxyecdysone Signaling From the Helicoverpa armigera Genome” (Frontiers in Cell and Developmental Biology, 2021):
# Test system: T1, prolactin-releasing peptide receptor (PRRPR)
# T1 construct: full ORF (XP_021184170.1) fused to GFP (PRRPR-GFP), in membranes of overexpressing HaEpi cells
# Test: saturation binding to membranes of PRRPR-GFP-overexpressing HaEpi cells, bound […] quantified by enzyme immunoassay ([…]-EIA)
# Set-up: species or system Helicoverpa armigera
smiles,measurement,value
"CC(C)(O)CC[C@@H](O)[C@](C)(O)[C@H]1CC[C@@]2(O)C3=CC(=O)[C@@H]4C[C@@H](O)[C@@H](O)C[C@]4(C)[C@H]3CC[C@]12C [20E, 20-hydroxyecdysone]",Kd,12.8 ± 2.19 nM
